Structures can show the parent of a compound that is named as a salt. Blank lines part the entries; values can stand above or below the compound they belong to.
Biological target: T1, protein farnesyltransferase (Rattus norvegicus, UniProt Q02293+Q04631)
T1 construct: The enzyme is purified according to Reiss, Y., et al., Cell, 62: 81-88 (1990), utilizing steps one through three; from tissue; host or cells: rat brain
Test: Inhibition of farnesyltransferase (scintillation proximity assay, rat brain enzyme, biotin-K Ras B fragment substrate)
Assay type: biochemical
Conditions: for % inhibition of farnesyltransferase at 1 × 10^-8 M: 1 × 10^-8 M (Table 4); for % inhibition of farnesyltransferase at 1 × 10^-7 M: 1 × 10^-7 M (Table 3); for % inhibition of farnesyltransferase at 1 × 10^-6 M / inhibition at 1 µM: 1 × 10^-6 M (Table 2); for inhibition at 0.01 µM: read-out: % inhibition at 0.01 μM (**), Table 6, ** = 0.01 μM (footnote), title prints 0.01 mM; for inhibition at 1 µM: read-out: % inhibition of farnesyltransferase at 1 × 10^-6 M; for % inhibition of farnesyltransferase at 1 × 10^-5 M: 1 × 10^-5 M (Table 1)
Outline: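 Enzyme from rat brain, partly purified (steps one to three), assayed by SPA kit using 0.1 mM final biotin-K Ras B peptide as prenyl acceptor rather than biotin-lamin. Activity given as percent inhibition.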

T1 sequence (Q02293 whole entry, one chain of several): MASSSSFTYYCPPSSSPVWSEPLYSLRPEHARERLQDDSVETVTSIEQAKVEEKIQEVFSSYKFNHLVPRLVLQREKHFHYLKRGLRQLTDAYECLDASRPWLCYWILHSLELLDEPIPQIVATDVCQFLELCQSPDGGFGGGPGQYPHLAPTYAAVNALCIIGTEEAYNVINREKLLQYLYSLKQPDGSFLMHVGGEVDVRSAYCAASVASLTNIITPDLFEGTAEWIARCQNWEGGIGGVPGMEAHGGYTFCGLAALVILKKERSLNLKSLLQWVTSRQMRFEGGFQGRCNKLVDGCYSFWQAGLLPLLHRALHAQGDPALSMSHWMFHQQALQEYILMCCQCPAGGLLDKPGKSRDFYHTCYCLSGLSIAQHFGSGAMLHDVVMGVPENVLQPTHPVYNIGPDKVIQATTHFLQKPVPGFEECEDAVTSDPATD

% inhibition of farnesyltransferase at 1 × 10^-8 M: 84%
Compound: CSCC[C@H](NC(=O)c1ccc(CN(CCC2CCCCC2)C(=O)c2ccccc2)cc1-c1ccccc1C)C(=O)O [Example 762]

% inhibition of farnesyltransferase at 1 × 10^-7 M: 90%
Compound: CSCC[C@H](NC(=O)c1ccc(COCc2ccccc2)cc1-c1ccccc1C)C(=O)NS(=O)(=O)c1ccccc1 [Example 580]

% inhibition of farnesyltransferase at 1 × 10^-6 M: 83%
Compound: CSCC[C@H](NC(=O)c1ccc(CNCCSc2ccccc2)cc1-c1ccccc1)C(=O)O [Example 667]

inhibition at 0.01 µM: 84%
Compound: CSCC[C@H](NC(=O)c1ccc(Cc2nnn(CC3CCCCC3)n2)cc1-c1ccccc1C)C(=O)O [Example 1102, N-[4-(2cyclohexylmethyltetrazol-5-ylmethyl)-2-(2-methylphenyl)benzoyl]methionine]

inhibition at 1 µM: 43%
Compound: CCCCON(CCC1CCCCC1)Cc1ccc(C(=O)N[C@@H](CCS(C)(=O)=O)C(=O)O)c(-c2ccccc2C)c1 [Example 298]

inhibition at 1 µM: 95%
Compound: CSCC[C@H](NC(=O)c1ccc(/C=C/c2cnccn2)cc1-c1ccccc1C)C(=O)O [Example 495, N-[4-(2-pyrazin-2-ylethen-1-yl)-2-(2-methylphenyl)benzoyl]methionine lithium salt]

inhibition at 1 µM: 98%
Compound: CSCC[C@H](NC(=O)c1ccc(CN(C2CC2)C2(CC3CCCCC3)CCC2)cc1-c1ccccc1C)C(=O)O [Example 330]

% inhibition of farnesyltransferase at 1 × 10^-7 M: 83%
Compound: CSCC[C@H](NC(=O)c1ccc(CSc2ccccc2C(C)C)cc1-c1ccccc1C)C(=O)O [Example 739]

inhibition at 0.01 µM: 63%
Compound: CSCC[C@H](NC(=O)c1ccc(CN2CCSC[C@H]2COCC2CCCCC2)cc1-c1ccccc1C)C(=O)O [Example 1111, N-[4-(3(R)-cyclohexylmethoxymethylthiomorpholin-4-ylmethyl)-2-(2-methylphenyl)benzoyl]methionine]

Compound: CSCC[C@H](NC(=O)c1ccc(COCc2cnc(-c3ccccc3Cl)s2)cc1-c1ccccc1C)C(=O)[O-].[Li+] [Example 897]
% inhibition of farnesyltransferase at 1 × 10^-8 M: 76%

% inhibition of farnesyltransferase at 1 × 10^-5 M: 73%
Compound: CSCC[C@H](NC(=O)c1ccc(CNc2ccc(O)cc2)cc1-c1ccccc1)C(=O)O [Example 689]

inhibition at 1 µM: 97%
Compound: Cc1ccccc1-c1cc(CNC(C)(C)Cc2ccccc2)ccc1C(=O)N[C@@H](CCS(C)(=O)=O)C(=O)O [Example 311]

inhibition at 1 µM: 99%
Compound: Cc1ccccc1-c1cc(CN(C2CC2)C2(Cc3ccccc3)CCC2)ccc1C(=O)N[C@@H](CCS(C)(=O)=O)C(=O)O [Example 333]

Compound: CSCC[C@H](NC(=O)c1ccc(COCC2CCCCC2)cc1-c1ccccc1C)C(=O)[O-].[Li+] [Example 585]
% inhibition of farnesyltransferase at 1 × 10^-7 M: 96%

% inhibition of farnesyltransferase at 1 × 10^-7 M: 96%
Compound: CSCC[C@H](NC(=O)c1ccc(CSC2=NCCS2)cc1-c1ccccc1C)C(=O)O [Example 730]

Compound: COc1ccc(-c2ccc(COCc3ccc(C(=O)N[C@@H](CCSC)C(=O)[O-])c(-c4ccccc4C)c3)o2)cc1.[Li+] [Example 446]
% inhibition of farnesyltransferase at 1 × 10^-7 M: 91%

% inhibition of farnesyltransferase at 1 × 10^-6 M: 90%
Compound: CSCC[C@H](NC(=O)c1ccc(CN(C)CC(O)CO)cc1-c1ccccc1C)C(=O)O (some centres unmarked) [Example 719]

Compound: CSCC[C@H](NC(=O)c1ccc(COCCCc2ccccc2)cc1-c1ccccc1C)C(=O)[O-].[Li+] [Example 595]
% inhibition of farnesyltransferase at 1 × 10^-6 M: 97%

inhibition at 1 µM: 98%
Compound: CSCC[C@H](NC(=O)c1ccc(CN(C(C)C)C(C)(C)CC2CCCCC2)cc1-c1ccccc1C)C(=O)O [Example 318]

% inhibition of farnesyltransferase at 1 × 10^-6 M: 48%
Compound: CSCC[C@H](NC(=O)c1ccc(CNc2ccccc2F)cc1-c1ccccc1)C(=O)O [Example 642]

inhibition at 0.1 µM (read-out: % inhibition at 0.1 μM (*), Table 6, * = 0.1 μM (footnote), title prints 0.1 mM): 89%
Compound: CCCCP(=O)(CCCC)Cc1ccc(C(=O)N[C@@H](CCSC)C(=O)O)c(-c2ccccc2C)c1 [Example 1222, N-[4-(Dibutyl(oxophosphinyl)methyl)-2-(2-methylphenyl)benzoyl]methionine]

% inhibition of farnesyltransferase at 1 × 10^-6 M: 65%
Compound: CSCC[C@H](NC(=O)c1ccc(CN(C(CC2CCCCC2)CC2CCCCC2)S(=O)(=O)c2ccccc2)cc1-c1ccccc1C)C(=O)O [Example 911]

Compound: CSCC[C@H](NC(=O)c1ccc(CSCc2ccc(C)cc2)cc1-c1ccccc1C)C(=O)[O-].[Li+] [Example 556]
% inhibition of farnesyltransferase at 1 × 10^-6 M: 99%

% inhibition of farnesyltransferase at 1 × 10^-6 M: 95%
Compound: CSCC[C@H](NC(=O)c1ccc(CN(CCCc2ccccc2)c2ccccc2)cc1-c1ccccc1C)C(=O)O [Example 508]

Compound: CSCC[C@@H](C(=O)[O-])N(C)C(=O)c1ccc(COCCCC2CCCCC2)cc1-c1ccccc1C.[Li+] [Example 597]
% inhibition of farnesyltransferase at 1 × 10^-7 M: 75%

% inhibition of farnesyltransferase at 1 × 10^-7 M: 94%
Compound: C=C(C)C1CC=C(COCc2ccc(C(=O)N[C@@H](CCSC)C(=O)O)c(-c3ccccc3C)c2)CC1 (some centres unmarked) [Example 521]

% inhibition of farnesyltransferase at 1 × 10^-6 M: 84%
Compound: CNCC(=O)Nc1ccc(C(=O)N[C@@H](CCSC)C(=O)O)c(-c2ccccc2)c1 [Example 749]

inhibition at 1 µM: 92%
Compound: CSCC[C@H](NC(=O)c1ccc(C=CCc2ccccc2)cc1-c1ccccc1C)C(=O)O (mixture of isomers) [Example 469, N-[4-(3-phenylprop-1-enyl)-2-(2-methylphenyl)benzoyl]methionine (1:1 mixture of olefin isomers)]

% inhibition of farnesyltransferase at 1 × 10^-5 M: 74%
Compound: CSCC[C@H](NC(=O)c1ccc(CNc2ccc(C(C)C)cc2)cc1-c1ccccc1)C(=O)O [Example 692]

% inhibition of farnesyltransferase at 1 × 10^-8 M: 92%
Compound: CSCC[C@H](NC(=O)c1ccc(CN(Cc2ccc3c(c2)OCO3)c2cnccn2)cc1-c1ccccc1C)C(=O)O [Example 838]

% inhibition of farnesyltransferase at 1 × 10^-8 M: 86%
Compound: CCSC[C@H](CC(C)C)NCc1ccc(C(=O)N[C@@H](CCSC)C(=O)O)c(-c2ccccc2C)c1 [Example 905]

% inhibition of farnesyltransferase at 1 × 10^-8 M: 92%
Compound: CCSC[C@H](CCc1ccccc1)NCc1ccc(C(=O)N[C@@H](CCSC)C(=O)O)c(-c2ccccc2C)c1 [Example 995]

% inhibition of farnesyltransferase at 1 × 10^-6 M: 98%
Compound: CSCC[C@H](NC(=O)c1ccc(NC(=O)C2=C(C(F)(F)F)C=CNC2)cc1-c1ccccc1)C(=O)O [Example 283]

% inhibition of farnesyltransferase at 1 × 10^-6 M: 91%
Compound: CSCC[C@H](NC(=O)c1ccc(NCC(CO)Cc2ccccc2)cc1-c1ccccc1C)C(=O)O (some centres unmarked) [Example 476]

% inhibition of farnesyltransferase at 1 × 10^-6 M: 72%
Compound: CSCC[C@H](NC(=O)c1ccc(CNCCN(C(C)C)C(C)C)cc1-c1ccccc1)C(=O)O [Example 636]

inhibition at 1 µM: 32%
Compound: CSCC[C@H](NC(=O)c1ccc(S(=O)(=O)NCCN2CCOCC2)cc1-c1ccccc1C)C(=O)O [Example 775, lithium salt]

% inhibition of farnesyltransferase at 1 × 10^-6 M: 34%
Compound: CSCC[C@H](NC(=O)c1ccc(CNCCN2CCCC2)cc1-c1ccccc1)C(=O)O [Example 641]

% inhibition of farnesyltransferase at 1 × 10^-6 M: 73%
Compound: CSCCC(NC(=O)c1ccc(CNC(CO)c2ccccc2)cc1-c1ccccc1)C(=O)O (centres unmarked) [Example 658]

% inhibition of farnesyltransferase at 1 × 10^-6 M: 69%
Compound: CSCC[C@H](NC(=O)c1ccc(CN[C@@H](CC2CCCCC2)[C@@H](O)[C@@H](O)CC(C)C)cc1-c1ccccc1)C(=O)O [Example 716]

inhibition at 0.01 µM: 82%
Compound: CSCC[C@H](NC(=O)c1ccc(Cc2nnnn2CC2CCCCC2)cc1-c1ccccc1C)C(=O)O [Example 1100, N-[4-(1-cyclohexylmethyltetrazol-5-ylmethyl)-2-(2-methylphenyl)benzoyl]methionine]

Compound: CSCC[C@H](NC(=O)c1ccc(CSCc2ccccc2C)cc1-c1ccccc1C)C(=O)[O-].[Li+] [Example 557]
% inhibition of farnesyltransferase at 1 × 10^-6 M: 93%
